In US4296233A, “Conjugate of amino sugar-steroid hormone” (Kureha Kagaku Kogyo Kabushiki Kaisha, priority 1978, dated 1981):
In brackets after ≈: the same amount, converted by molar mass. Several values for one entry are separate records, joined by “and”; a condition that tells them apart may be missing. Identical values can stand only once. Like-named read-outs stand apart in the source and are kept apart here.

What was measured:
[1] = Solubility of the conjugate in water; format: physicochemical; details: compared with conjugate at 3-position in Example 1
[2] = Solubility in a mixed solvent of 98 vol.% of water and 2 vol.% of ethanol (method of Example 1); format: physicochemical; details: for solubility: water/ethanol 98:2, organic solvent or mixture
Method: The conjugate is dissolved at 4.39×10^-5 mole/liter (30 mg/liter) in a mixed solvent of 98 vol.% of water and 2 vol.% of ethanol.
Solubility of dehydroepiandrosterone in the same mixed solvent measured by absorbance at 235 mμ is 0.24×10^-5 mole/liter.

[3] = tested on: antibody which is active to the ketone group at 17-position of dehydroepiandrosterone; test: Competitive immunoassay with tritium-labelled dehydroepiandrosterone bound to antibody; format: binding; details: FIG. 1, curves A and B
Method: In order to confirm the presence of C-D complex combined to AP, the combined product was analyzed by a competitive immunoassay method described in Seikagaku Jikken Koza (Biochemical Experiment Hormones (First) Page 217 to 252 (by Nippon Seikagaku Kai) (published by Tokyo Kagaku Dojin in 1977).
Dehydroepiandrosterone labelled by tritium (^3 H) was bound to the antibody which is active to the ketone group at 17-position of dehydroepiandrosterone. The combined product or dehydroepiandrosterone was added to the system of the antibody and the labelled compound to measure the amount of free ^3 H-dehydroepiandrosterone release from the system.

[4] = mixed solvent of 98 vol.% of water and 2 vol.% of ethanol, read-out: Solubility

C[C@]12CC[C@H]3[C@@H](CC=C4C[C@@H](O)CC[C@@]43C)[C@@H]1CC[C@@H]2OC(=O)COC(=O)[C@H]1O[C@@H](O[C@H]2[C@@H](O)[C@@H](CO)OC(O)[C@@H]2N)[C@H](O)[C@@H](O)[C@@H]1O (mixture of isomers) [Example 3, Conjugate of dehydroepiandrosterone (hereinafter referring as to DHS) and chondrosine at 17-position with a binding agent of bromoacetyl bromide]
solubility of the conjugate in water [1]: substantially same with that of the conjugate at 3-position in Example 1

C[C@]12CCC(OC(=O)[C@H]3OC(O)[C@H](N)[C@@H](O)[C@@H]3O)CC1=CC[C@@H]1[C@@H]2CC[C@]2(C)C(=O)CC[C@@H]12 (mixture of isomers) [Example 4, Conjugate of DHS and 2-amino-2-deoxy-α-D-glucuronic acid]
solubility [2, 4]: 40.2 µM

C[C@]12CC[C@H](OC(=O)COC(=O)[C@H]3O[C@@H](O[C@H]4[C@@H](O)[C@@H](CO)OC(O)[C@@H]4N)[C@H](O)[C@@H](O)[C@@H]3O)CC1=CC[C@@H]1[C@@H]2CC[C@]2(C)C(=O)CC[C@@H]12 (stereo partly drawn) [Example 1, conjugate of 3β-hydroxy-5-androsten-17-one(dehydroepiandrosterone) at 3-position and 2-amino-2-deoxy-3-O-β-glucopyranurosyl-D-galactose (chondrosine) at 6-position with a binding agent of bromoacetyl bromide]
solubility of the conjugate relative to the non-conjugate dehydroepiandrosterone ([2]; versus dehydroepiandrosterone, same mixed solvent): more than 18 times
solubility [2, 4]: 43.9 µM and 30 µg/mL

C[C@]12CC[C@@H]3c4ccc(O)cc4CC[C@H]3[C@@H]1CC[C@@H]2OC(=O)COC(=O)[C@H]1O[C@@H](O[C@H]2[C@@H](O)[C@@H](CO)OC(O)[C@@H]2N)[C@H](O)[C@@H](O)[C@@H]1O (stereo partly drawn) [Example 2, conjugate of 1,3,5(10)-estratriene-3,17β-diol (estradiol) and chondrosine at 17-position with a binding agent of bromoacetyl bromide]
solubility of the product relative to that of estradiol ([2]; versus estradiol, method of Example 1): about 20 times
solubility [2, 4]: 65 µM

C[C@]12CC[C@H](O)CC1=CC[C@@H]1[C@@H]2CC[C@]2(C)C(=O)CC[C@@H]12 [dehydroepiandrosterone, 3β-hydroxy-5-androsten-17-one, reference compound]
solubility ([2]; same mixed solvent, measured by absorbance at 235 mμ, read-out: Solubility of dehydroepiandrosterone): 2.4 µM (≈ 0.692 µg/mL)
amount of free ^3 H-dehydroepiandrosterone released / binding to the antibody [3]: the amount of free ^3 H-dehydroepiandrosterone was increased by the addition of the combined product or dehydroepiandrosterone whereby the their binding to the antibody is found
